Assays:
[1] = dynamic solubility in water and three biological solvents; type: physicochemical; details: 37 °C, thermodynamic from solid
Experimental: Finally, the volume is fixed with purified water.
(§1) 0.17 g of sodium dihydrogen phosphate (NaH2PO4, anhydrous), 0.021 g of sodium hydroxide and 0.31 g of sodium chloride were weighed into a 50 mL volumetric flask respectively, about 48 mL of purified water was added for dissolution, the pH was adjusted to exactly 6.5 with 1M hydrochloric acid or 1M sodium hydroxide, and the volume was fixed with purified water. 0.11 g of SIF powder was then added, stirred and sonicated to completely dissolve the powder. The solution can be used only after being placed at room temperature for two hours to reach equilibrium.
as §1, with “0.41 mL” for “0.17 g”, “glacial acetic acid, 0.20” for “sodium dihydrogen phosphate (NaH2PO4, anhydrous), 0.021”, “0.59” for “0.31”, “respectively, and” for “respectively,”, “5.0” for “6.5”, “0.56” for “0.11”
The solubility results of the two samples in SGF, FASSIT and FeSSIF are similar. […] Table 4-1 Summary of the dynamic solubility test results

[2] = hygroscopicity evaluation by dynamic vapor sorption (DVS); type: physicochemical
Experimental: The DVS curves were collected on a DVS Intrinsic from SMS (Surface Measurement Systems).The relative humidity at 25°C was corrected with the deliquescence points of LiCl, Mg (NO3)2 and KCl.

[3] = solid state stability (XRPD, HPLC, chiral purity); type: physicochemical
Experimental: The purity test, the dynamic solubility and the stability test are tested by the Agilent 1260/1100 high performance liquid chromatograph, and the analysis conditions and chiral purity test analysis conditions of the high performance liquid chromatography test are respectively as follows.
After placing the amorphous free base and fumarate crystal form F of the compound of formula (I) at 25°C/60% RH and 40°C/75% RH for 1 week, the physical and chemical stability of the sample is detected by XRPD and HPLC (at the same time the chiral purity of the sample is tested). […] Table 4-2 Solid Stability Evaluation Summary

[4] = rats, P.O., 10 mg/kg; data from WO2018006756A1 (B1); cited from earlier work
[5] = body weight of tumor-bearing mice during treatment
From the text: (§2) 30 mice with uniform tumor sizes (Coefficient of Variation, CV < 30%, CV = Standard Deviation / Mean) were selected from this group. These mice were selected and randomly divided into five experimental groups according to Table 6-2, with six mice in each group and one group per cage. Drug administration began the day after grouping and lasted for 17 days with a frequency of twice daily (BID). The drug was discontinued after 17 days to observe tumor changes.
(§3) During routine examinations, animals were monitored for tumor growth, activity level, food intake, water consumption, weight gain or loss, eye, fur, and any other abnormal behaviors. Animal deaths and clinical abnormalities were recorded. Tumor volume (TV) was measured twice weekly using calipers and calculated using the formula: TV = 0.5a × b^2, wherein a is the longest diameter of the tumor and b is the shortest diameter. Body weight was recorded twice weekly, concurrently with tumor volume measurements.
(§4) If the animals' weight subsequently recovered to within a 10% loss compared to baseline, whether to continue the administration was based on the animals' condition. The in vivo experimental for an individual animal or the entire group would be terminated under the following conditions. The animals will be euthanized before death or coma. • ➢ If the animals' health condition deteriorated continuously, causing persistent suffering and is unable to eat or drink. • ➢ If the animal became emaciated, with a body weight loss exceeding 20% compared to the initial administration. • ➢ If the tumor volume of an individual mouse exceeded 3000 mm^3 or the mean tumor volume of the entire group exceeded 2000 mm^3.

[6] = SCID tumor-bearing mice, i.g. BID × 3 days
Experimental: During routine examinations, animals were monitored for tumor growth, activity level, food intake, water consumption, weight gain or loss, eye, fur, and any other abnormal behaviors. Animal deaths and clinical abnormalities were recorded.

[7] = test system: Gli1 Gene; experiment: Gli1 mRNA expression in tumor tissues (RT-qPCR), Shh signaling pathway analysis; type: in vivo, CB-17/SCID mice; details: 10 mg/kg i.g. BID × 3 days; tumor tissue 2 hours after last administration; GAPDH internal reference
From the text: Table 7-1 The Grouping and Drug Administration Plan
Primary tumor cells were extracted from Math1-Cre/Ptch1 ^C/C mice with spontaneous medulloblastoma and subcutaneously inoculated into CB-17/SCID mice to establish a xenograft model of medulloblastoma.
CB-17/SCID mice were subcutaneously injected with primary extracted medulloblastoma cells. After 3-4 weeks, a subset of mice developed tumors with volumes ranging from 150 to 300 mm^3.
From these mice, 25 tumor-bearing mice with uniform tumor sizes (with CV < 30%, CV = SD/Mean) were selected and randomly divided into 5 experimental groups (Vehicle, GDC-0449-10 mg/kg, Compound A-10 mg/kg, Compound A-3 mg/kg, Compound A-1 mg/kg) according to Table 2. Each group consisted of 5 mice per cage. Administration began on the day after grouping. The administration period was 3 days, with a frequency of BID. Tumor tissues were collected 2 hours after the last administration, and the mRNA expression level of the Glil gene in the tumor tissues was analyzed by RT-qPCR.
The tumor tissues were lysed by RNAiso Plius (TaKaRa, 108-95-2) to extractand RNA was then extracted using chloroform extraction and isopropanol precipitation methods. Subsequently, the mRNA level of the Glil gene was detected using a real-time fluorescence quantitative PCR instrument (ABI 7500), with GAPDH serving as the internal reference for quantitative analysis.
Experimental data in all tables are presented as "mean ± standard deviation" with error bars in figures representing standard error of the mean (SEM). Student's t-test was used to compare statistical differences in Glil gene mRNA expression levels in tumor tissues among treatment groups. All data were analyzed using GraphPad Prism 5.0. P-value <0.05 was considered statistically significant. ***, P<0.001; ##, P<0.01.
Glil is a target gene of the Hedgehog signaling pathway, and its mRNA expression level reflects the activation status of the hedgehog signaling pathway.

[8] = in vivo; details: male, C57, mouse, plasma, po, 10 mg/kg
Experimental: The collected plasma samples were subjected to a protein precipitation method by using an organic reagent according to the following method to extract test article in the plasma, and the extracted sample was subjected to quantitative concentration analysis through the LC-MS/MS.
Meanwhile, an accompanying standard curve and quality control samples were prepared for quantitative analysis.
The fumarate salt form F of the compound of formula (I) Group: 50 µL of plasma at each time point was taken, 400 µL of acetonitrile was added, vortex mixing and centrifugation was performed at 10000 rpm for 10 min, and a 200 µL supernatant for LC-MS/MS analysis was taken. Meanwhile, an accompanying standard curve and quality control samples were prepared for quantitative analysis.
According to the plasma drug concentration data obtained through analysis, the main pharmacokinetic parameters were calculated according to the non-atrioventricular model by using Kinetic software (Version 5.0).

[9] = test system: primary extracted medulloblastoma cells; experiment: antitumor efficacy against medulloblastoma, subcutaneous xenograft model;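 also: male CB-17/SCID mice bearing subcutaneous tumors, randomized at 150-300 mm^3, tumor volume from caliper diameters as 0.5 × longest × shortest squared, measured twice weekly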; type: in vivo, CB-17/SCID mice; details: 10 mg/kg i.g. BID, 17 days
Experimental: 60 male CB-17/SCID mice (aged 6-8 weeks) were purchased from Shanghai SLAC Laboratory Animal Co., Ltd. Animals were housed in individually ventilated cages (IVCs), with five mice per cage. Housing conditions were as follows: temperature was maintained at 20-26°C; humidity was 30-70%; 12 hours of light and 12 hours of darkness.
as §2, §3, §4
All data were analyzed using GraphPad Prism 5.0. P value < 0.05 was considered statistically significant.

[10] = pH 1.8, simulated gastric fluid

Structure (SMILES): Cc1cnc(-c2cc(N3CCc4nc(N5CCC(O)CC5)ncc4[C@H]3C)ncc2Cl)c(C)c1 [compound of formula (I), (R)-1-(6-(5'-chloro-3,5-dimethyl-[2,4'-bipyridin]-2'-yl)-5-methyl-5,6,7,8-tetrahydropyrido[4,3-d]pyrimidin-2-yl)piperidin-4-ol]
- solubility at 1 h [1, 10]: 4100 µg/mL
- solubility at 2 h [1, 10]: 3900 µg/mL
- solubility at 4 h [1, 10]: 4000 µg/mL
- solubility at 24 h [1, 10]: 3900 µg/mL
- solubility at 1 h ([1]; pH 5, fessif): 3000 µg/mL
- solubility at 2 h ([1]; pH 5, fessif): 3000 µg/mL
- solubility at 4 h ([1]; pH 5, fessif): 2900 µg/mL
- solubility at 24 h ([1]; pH 5, fessif): 2900 µg/mL
- solubility at 1 h ([1]; pH 6.5, fassif): 210 µg/mL
- solubility at 2 h ([1]; pH 6.5, fassif): 200 µg/mL
- solubility at 4 h ([1]; pH 6.5, fassif): 240 µg/mL
- solubility at 24 h ([1]; pH 6.5, fassif): 220 µg/mL
- solubility at 1 h ([1]; water): 13 µg/mL
- solubility at 2 h ([1]; water): 16 µg/mL
- solubility at 4 h ([1]; water): 18 µg/mL
- solubility at 24 h ([1]; water): 30 µg/mL
- crystal transformation or crystal form change after the DVS test (XRPD) ([2]; 0% RH-95% RH-0% RH, 25°C): no crystal transformation or crystal form change
- Water adsorption (25°C/80%RH) ([2]; 25°C/80%RH): 2.4
- moisture adsorption ([2]; 25°C/80%RH): 2.4%
- Chiral purity (%) ([3]; 25°C/60%RH_1w): 98.7%
- Purity (Area%) ([3]; 25°C/60%RH_1w): 99.0 Area%
- Purity/Initial purity (%) ([3]; 25°C/60%RH_1w): 100.0%
- Chiral purity (%) ([3]; 40°C/75%RH_1w): 98.7%
- Purity (Area%) ([3]; 40°C/75%RH_1w): 98.9 Area%
- Purity/Initial purity (%) ([3]; 40°C/75%RH_1w): 99.9%
- Chiral purity (%) ([3]; Start): 98.5%
- Purity (Area%) ([3]; Start): 99.0 Area%
- Solid State Stability ([3]; summary, 25°C/60% RH and 40°C/75% RH for 1 week): good physical and chemical stability
- F% [4]: 100%

Structure (SMILES): CS(=O)(=O)c1ccc(C(=O)Nc2ccc(Cl)c(-c3ccccn3)c2)c(Cl)c1 [GDC-0449, reference compound]
- Mean Body Weight at Day 0 ([5]; 10 mg/kg group, before treatment): 23.7 ± 2.1 g
- Body Weight Change Rate (%) ([5]; 10 mg/kg i.g. BID, 17 days): 9.3%
- Mean Body Weight at Dosing Endpoint ([5]; 10 mg/kg i.g. BID, 17 days): 25.9 ± 2.0 g
- impact on the body weight of tumor-bearing mice during the treatment period ([5]; administered doses, i.g. BID × 17 days): no significant impact
- abnormal behaviors or animal deaths during the administration period [6]: no abnormal behaviors or animal deaths
- mRNA Expression Level of Glil Gene [7]: 0.194 ± 0.074
- AUC(0-inf) [8]: 6650 ng·h/mL
- AUC(0-t) [8]: 6040 ng·h/mL
- Cmax [8]: 1270 ng/mL
- MRT [8]: 8.33 h
- Tmax [8]: 0.63 h
- half-life [8]: 8.43 h
- T/C (%) [9]: 32.49%
- TGI (%) ([9]; TGI = [1 - RTV(treatment group) / RTV(control group)] × 100%): 67.51%

— patent publication EP4696689A1, “SALT FORM AND CRYSTAL FORM OF CHIRAL HETEROCYCLIC COMPOUND HAVING HEDGEHOG PATHWAY ANTAGONIST ACTIVITY” (Suzhou Kintor Pharmaceuticals, Inc., priority 2023, dated 2024)
